The values that follow come from article PMC7175277, “Hydroxylamine Analogue of Agmatine: Magic Bullet for Arginine Decarboxylase” (Biomolecules, 2020).

One experiment addresses T1, E. coli ADC (Escherichia coli, UniProt P21170).
T1 construct: The kinetic parameters determined for the partially purified biosynthetic ADC from E. coli; endogenous in cells; host or cells: E. coli DH5α (39-53% ammonium sulphate fraction of the lysate, desalted)
T1 sequence (P21170 1-658): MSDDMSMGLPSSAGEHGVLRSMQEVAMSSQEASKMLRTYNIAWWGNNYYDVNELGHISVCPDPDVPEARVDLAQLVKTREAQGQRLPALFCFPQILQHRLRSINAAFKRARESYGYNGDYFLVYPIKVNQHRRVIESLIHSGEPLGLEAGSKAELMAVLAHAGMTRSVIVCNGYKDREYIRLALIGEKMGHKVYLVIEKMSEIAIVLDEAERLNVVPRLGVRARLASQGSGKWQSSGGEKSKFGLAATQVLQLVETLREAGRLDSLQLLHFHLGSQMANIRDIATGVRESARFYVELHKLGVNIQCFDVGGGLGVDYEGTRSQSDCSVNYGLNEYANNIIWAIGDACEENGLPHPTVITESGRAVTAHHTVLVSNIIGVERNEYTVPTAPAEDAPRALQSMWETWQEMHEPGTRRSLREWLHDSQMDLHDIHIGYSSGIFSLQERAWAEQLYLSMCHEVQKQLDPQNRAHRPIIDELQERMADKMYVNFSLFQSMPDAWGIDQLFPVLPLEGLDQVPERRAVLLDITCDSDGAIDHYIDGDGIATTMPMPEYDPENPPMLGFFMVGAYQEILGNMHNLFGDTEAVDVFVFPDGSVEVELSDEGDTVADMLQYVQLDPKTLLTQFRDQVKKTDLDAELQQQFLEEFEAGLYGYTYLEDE
Description: E. coli ADC activity assay (HPLC of agmatine). The experiment is classed as biochemical. Conditions: for inhibition at 0.1 µM: AO-Agm 100 nM; for inhibition at 0.1 µM / inhibition at 0.5 µM: no preincubation; for inhibition at 0.5 µM: AO-Agm 500 nM. The procedure: The purification was performed using a modified procedure of earlier publication. E. coli strain DH5α was grown in Luria-Bertani broth at +37 °C with shaking (200 rpm) overnight. The cells were collected by centrifugation and the pellet was homogenized with Potter-Elvehjem in 10 volumes (w/v) of ice-cold 50 mM Tris-HCl pH 7.4, 1 mM DTT. The cell debris was removed by centrifugation at 12,000 g for 30 min at +4 °C. Solid (NH4)2SO4 was added to the supernatant, and the pellet precipitating between 39% and 53% saturation was separated. The precipitate was resuspended in ice-cold buffer containing 50 mM Tris-HCl pH 7.4 and 1 mM DTT and desalted by passage through Sephadex G-25 column (NAP-10 column, GE Healthcare). The protein concentration was measured with Bio-Rad protein reagent, and the partially purified enzyme preparation was mixed with 20% glycerol and aliquoted for storage at −80 °C.
[…] The ODC reaction mixture contained 50 mM Tris-HCl pH 7.8, 1 mM EDTA, 2.4 mM DTT, 0.1 mM PLP and 20 μg of partially purified enzyme preparation. The mixtures were either preincubated or not preincubated for 15 min at +40 °C in the presence of the inhibitor, after which the reaction was started by the addition of 18 μL of 10× substrate (L-Arg for ADC and L-Orn for ODC). After incubation for 30 min (ADC) or 20 min (ODC) at +40 °C, 20 μL of 50% sulphosalicylic acid containing 50 μM diaminoheptane (internal standard) was added and the samples were analyzed for the content of agmatine (ADC) and Put (ODC) with HPLC as described previously. The kinetic parameters and IC50 values were determined with the aid of GraphPad Prism version 5.03 using nonlinear regression analysis.

The subject of experiment [1] is DU145 prostate cancer cells. The experiment can be described thus: Growth of DU145 cells. The experiment is classed as cell-based. Conditions: for Growth: 3 days. The method, then:
DU145 prostate cancer cells were cultured in high-glucose Dulbecco’s Modified Eagle’s Medium supplemented with 10% heat-inactivated fetal bovine serum, 2 mM L-glutamine and 50 μg/mL gentamycin (all from Sigma-Aldrich). The cells were plated on 6-well plates and allowed to attach overnight. […] The cells were harvested, and the pellet was mixed with 150 μL of 5% sulphosalicylic acid containing 5 μM diaminoheptane (internal standard). Polyamine analysis was carried out as described previously.

In experiment [2] the test system is Acremonium chrysogenum wild-type (WT) ATCC 11550. Description: Fungal growth inhibition (drop-dilution, CD agar), WT strain. Type of experiment: cell-based. The conditions noted are these: Hapsidospora chrysogena, ATCC11550, 336 h, 5 mM inhibitor, 14 days after inoculation on CD medium. The source says: Two strains of Acremonium chrysogenum were used in this study: the wild-type (Brotzu) isolate ATCC 11550 (WT) and high-cephalosporin-yielding RNCM F-4081D (HY), derived from the WT [37]. The cultivation conditions were the same as previously described. The filamentous fungi were cultivated on agarized Czapek-Dox (CD) medium (30 g/L sucrose, 2 g/L NaNO3, 1 g/L K2HPO4, 0.5 g/L MgSO4×7 H2O, 0.5 g/L KCl, 0.01 g/L FeSO4×7 H2O, 20 g/L agar, pH 7.0–7.4). To determine the toxic effect of AO-Agm, APA, DFMA and DFMO on the growth of fungal cells the drop-dilution method was used with some modifications as described earlier. Cells were collected from agar slants and diluted with 0.9% NaCl solution up to OD600 = 0.5 (basic concentration), followed by serial tenfold dilutions with the same solution. […] The inoculated Petri dishes were incubated for 21 days at 26 °C. The inhibitory effects of the compounds were measured every three days after inoculation and evaluated by measuring the ratio of colony growth on agarized CD medium supplemented with AO-Agm, APA, DFMA, or DFMO to the growth in the control (agarized CD medium without any additions). The formula: growth inhibition % = [(Dc − Dt)/Dc] × 100, where Dc indicates the colony diameter in control set, and Dt indicates the colony diameter in the treatment set that was used to determine the percent of fungal growth inhibition. The data recorded were measured in triplicate and repeated at least twice.

Where [3] appears, read: 0.1 mM PLP, 15 min preincubation, 0.15 mM L-Arg.

For orientation: IC50 means the concentration that inhibits the measured activity by half. Low values mean greater potency, high ones weaker potency. In general, inhibition refers to the share of the control response that was lost under treatment. Turning to `N=C(N)NCCCON` [AO-Agm, 1-aminooxy-3-guanidinopropane], the IC50 is 26 ± 1 nM against E. coli ADC (0.01 mM PLP, 15 min preincubation, 0.15 mM L-Arg); 30 ± 1 nM against E. coli ADC (setting [3]); 89 ± 1 nM on E. coli ADC (1 mM PLP, 15 min preincubation, 0.15 mM L-Arg). Further, on E. coli ADC (0.1 mM PLP, 0.15 mM L-Arg), the “Effect of omitting the preincubation time on the efficiency of ADC inhibition” value is “did not significantly alter”. The “Potency as ADC inhibitor relative to DFMA (more potent)” value on E. coli ADC (setting [3]) turned out to be 330 times. Moreover, the inhibition at 0.1 µM on E. coli ADC (0.15 mM L-Arg, 0.1 mM PLP) is 25%; on E. coli ADC (1.5 mM L-Arg, 0.1 mM PLP), about 5%. In addition, the inhibition at 0.5 µM against E. coli ADC (0.15 mM L-Arg, 0.1 mM PLP) was found to be 95%; at E. coli ADC (1.5 mM L-Arg, 0.1 mM PLP), 60%. The Growth in experiment [1] (AO-Agm 10 μM in the presence of SC (1 mM)) amounted to 0.94 ± 0.03 Fold; in experiment [1] (AO-Agm 10 μM, no SC) it was 0.96 ± 0.02 Fold; in experiment [1] (AO-Agm 100 μM in the presence of SC (1 mM)), 0.97 ± 0.02 Fold; in experiment [1] (AO-Agm 100 μM, no SC), 0.96 ± 0.04 Fold; in experiment [1] (AO-Agm 1 mM in the presence of SC (1 mM)), 0.45 ± 0.01 Fold; in experiment [1] (AO-Agm 1 mM, no SC), 0.72 ± 0.04 Fold. Also, the “Proliferation and intracellular polyamine pools of DU145 cells” value in experiment [1] (AO-Agm 0.01 mM and 0.1 mM) is given as “without effect”. In experiment [1] (AO-Agm 1 mM), the “Proliferation of DU145 cells” value is given as “moderately inhibited”. For the same molecule, in experiment [2], the inhibition at 5000 µM turned out to be 34%.
